The text below walks through data of patent US20080070987A1, “META-XYLYLENEDIAMINE VANADATE SALTS” (priority 2006, published 2008).

One test addresses T1, Human SSAO/VAP-1 (Homo sapiens, UniProt Q16853).
T1 sequence (Q16853 1-763): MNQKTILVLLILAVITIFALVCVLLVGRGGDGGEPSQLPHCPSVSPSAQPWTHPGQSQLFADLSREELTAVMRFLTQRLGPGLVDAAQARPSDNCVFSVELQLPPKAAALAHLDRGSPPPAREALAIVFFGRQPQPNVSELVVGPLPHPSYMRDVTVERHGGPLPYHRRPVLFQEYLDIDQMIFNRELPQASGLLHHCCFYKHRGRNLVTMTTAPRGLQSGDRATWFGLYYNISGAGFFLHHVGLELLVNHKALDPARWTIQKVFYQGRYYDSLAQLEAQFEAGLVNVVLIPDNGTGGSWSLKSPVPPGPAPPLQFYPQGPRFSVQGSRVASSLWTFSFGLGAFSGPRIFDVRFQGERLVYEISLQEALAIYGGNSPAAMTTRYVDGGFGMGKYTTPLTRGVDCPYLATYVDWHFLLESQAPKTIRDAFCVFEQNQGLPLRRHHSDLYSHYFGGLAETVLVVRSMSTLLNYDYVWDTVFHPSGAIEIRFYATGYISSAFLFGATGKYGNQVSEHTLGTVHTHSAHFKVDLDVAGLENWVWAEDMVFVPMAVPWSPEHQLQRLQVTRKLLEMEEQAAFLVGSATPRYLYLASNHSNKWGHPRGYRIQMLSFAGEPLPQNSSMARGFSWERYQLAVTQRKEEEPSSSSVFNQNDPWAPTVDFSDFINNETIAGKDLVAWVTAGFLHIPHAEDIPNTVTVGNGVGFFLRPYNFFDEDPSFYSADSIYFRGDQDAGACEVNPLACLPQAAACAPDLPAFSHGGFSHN
The test can be described thus: Fluorimetric detection of SSAO-mediated H2O2 formation (Amplex Red), human recombinant VAP-1. As to conditions: production of hydrogen peroxide; compounds at 1 mM. The format is biochemical. How it is done:
(§1) The SSAO activity of human recombinant VAP-1 (0.1 μg prot/assay) and mouse adipose tissue membranes (1 μg prot/assay) was measured using Amplex Red Reagent, a highly sensitive and stable probe for H2O2. The reaction was performed in 200 μL of 0.2 mol/l phosphate buffer at pH 7.4 for 50 min at 37° C. in black non-phosphorescent microplates (Nunc). Catalytic reaction was initiated by the addition of the amines indicated as putative SSAO substrates and H2O2-detecting mixture containing horseradish peroxidase and Amplex Red, as previously described. Fluorescence intensity was measured (excitation, 545 nm, 590 nm, Bio-Tek fluorescence plate reader) and H2O2 concentration was calculated form calibration curves generated by serial dilutions of standard H2O2. Fluorescence readings were performed every 5 min. […] To test amines as putative SSAO inhibitors, they were pre-incubated for 20 min with semicarbazide, and their percentage of inhibition was calculated by referring to SSAO activity produced by benzylamine. The kinetic parameters Km and Vmax were calculated using appropriate non-linear curve-fitting formula based on the Michaelis-Menten equation and using GraphPad Prism 4.0 software.

A further test addresses T2, Mouse SSAO/VAP-1 (Mus musculus, UniProt O70423).
T2 construct: from tissue; host or cells: internal adipose tissue membranes of Swiss mice
T2 sequence (O70423 1-765): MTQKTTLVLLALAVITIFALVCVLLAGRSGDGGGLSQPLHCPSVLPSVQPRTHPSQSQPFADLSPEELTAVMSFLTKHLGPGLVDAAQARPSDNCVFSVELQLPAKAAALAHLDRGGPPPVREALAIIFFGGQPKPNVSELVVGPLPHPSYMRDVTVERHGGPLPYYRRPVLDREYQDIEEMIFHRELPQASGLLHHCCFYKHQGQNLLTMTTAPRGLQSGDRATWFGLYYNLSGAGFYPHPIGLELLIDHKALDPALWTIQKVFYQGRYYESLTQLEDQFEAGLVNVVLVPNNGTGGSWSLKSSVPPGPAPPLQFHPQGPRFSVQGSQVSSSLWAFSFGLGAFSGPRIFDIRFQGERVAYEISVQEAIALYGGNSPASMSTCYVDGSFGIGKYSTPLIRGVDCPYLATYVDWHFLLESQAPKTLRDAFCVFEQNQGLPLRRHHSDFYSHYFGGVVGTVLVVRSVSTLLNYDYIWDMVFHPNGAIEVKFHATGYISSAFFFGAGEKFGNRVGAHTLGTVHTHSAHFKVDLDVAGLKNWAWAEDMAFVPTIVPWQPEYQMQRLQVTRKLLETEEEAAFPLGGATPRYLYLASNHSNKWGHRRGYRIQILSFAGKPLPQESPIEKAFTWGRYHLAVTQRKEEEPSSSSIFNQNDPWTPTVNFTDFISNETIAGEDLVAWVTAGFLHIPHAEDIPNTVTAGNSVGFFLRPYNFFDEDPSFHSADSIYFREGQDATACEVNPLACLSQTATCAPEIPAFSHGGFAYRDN
The test can be described thus: Fluorimetric detection of SSAO-mediated H2O2 formation (Amplex Red), mouse adipose tissue membranes. The format is biochemical. The settings on record: production of hydrogen peroxide; compounds at 100 μM. How it is done: Internal adipose tissue was obtained from Swiss mice weighing between 20 to […]. […] The lysates were then centrifuged at 5000 g at 4° C. for 15 min to eliminate the fat cake and non-homogenized material, and supernatants were collected and centrifuged at 200000 g for 2 h at 4° C. Pelleted membranes were resuspended in 30 mmol/l HEPES and stored at −80° C. until use. Protein concentrations were measured by the Bradford method with γ-globulin as standard.
as §1

For another test, the system named is isolated rat adipocytes. The test can be described thus: Glucose (2-deoxyglucose) transport in isolated rat adipocytes. As to conditions: for stimulation of glucose transport (2-DG uptake), in words: 45 min incubation; for effect of semicarbazide on the stimulation of glucose transport: 1 mM semicarbazide. In kind it is cell-based, Wistar rats. The protocol: FIG. 1 is a graphical illustration of the hexaquis(benzylammonium) decavanadate effects on glucose transport in isolated rat adipocytes. In this Figure, V corresponds to the rate of 2-deoxyglucose transport (expressed relative to the basal rate), and the results are mean +standard error of the mean (SEM). The adipocytes were incubated in the absence of stimulants in the following conditions: basal (1); in the presence of 100 nM insulin (2); in the presence of hexaquis(benzylammonium) decavanadate at concentrations of 0.5 μM (3), 1 μM (4), 2.5 μM (5), 5 μM (6), 10 μM (7), 25 μM (8), 50 μM (9), and 100 μM (10). The cells were also incubated in the presence of the semicarbazide inhibitor (1 mM), and 10 μM hexaquis(benzylammonium) decavanadate (11), 25 μM of hexaquis(benzylammonium) decavanadate (12) or 50 μM hexaquis(benzylammonium) decavanadate (13). In parallel, the cells were incubated in presence of 100 μM of sodium vanadate and 100 μM of benzylamine, in the absence (14) or in the presence of 1 mM of semicarbazide (15).
FIG. 2 is a graphical illustration of the effects of hexaquis(benzylammonium) decavanadate, pentaquis(benzylammonium) decavanadate and tetraquis(benzylammonium) decavanadate on glucose transport in isolated rat adipocytes. V corresponds to the rate of 2-deoxyglucose uptake (expressed as relation with basal group), and the results are mean +standard error mean. The adipocytes were incubated in the absence of stimulants in the following conditions: basal (1); in the presence of 100 nM of insulin (2); in the presence of hexaquis(benzylammonium) decavanadate at concentrations of 10 μM (3) and 25 μM (4), pentaquis(benzylammonium) decavanadate at concentrations of 10 μM (8) and 25 μM (9), and tetraquis(benzylammonium) decavanadate at concentrations of 10 μM (11) and 25 μM (12). The cells were also incubated in the presence of the semicarbazide inhibitor (1 mM) and, 25 μM of hexaquis(benzylammonium) decavanadate (5), 25 μM of pentaquis(benzylammonium) decavanadate (10) or 25 μM of tetraquis(benzylammonium) decavanadate (13). In parallel, the cells were incubated in the presence of 100 μM of sodium vanadate (6) or in the presence of 250 μM of sodium vanadate (7).
Adipose cells from Wistar rats were incubated for 45 minutes in basal conditions (Basal) or in the presence of 100 nM insulin (Ins) and different concentrations of. hexaquis(benzylammonium) decavanadate (B6V10) in the absence or in the presence of 1 mM semicarbazide (SCZ). Subsequently, 2-DG transport was measured over a 5 min. interval.
The effects of the three tested compounds (B6V10, B5V10 and B4V10) were compared. Adipose cells from Wistar rats were incubated for 45 minutes in basal conditions (Basal) or in the presence of 100 nM insulin (Ins), and different concentrations of decavanadate (V10), hexaquis(benzylammonium) decavanadate (B6V10), pentaquis(benzylammonium) decavanadate (B5V10) or tetraquis(benzylammonium) decavanadate (B4V10) in the absence or in the presence of 1 mM semicarbazide (SCZ). 2-DG transport was measured over 5 min. intervals.
In additional experiments, compounds shown in FIG. 6A, 2-(4-fluoro-phenyl)ethylamine (compound A), 3-phenylpropylamine (compound B), 4-fluoro-benzylamine (compound C) and 4-phenylbutylamine (compound D) were assessed using the experimental methods set forth above for the capacity to stimulate 2-DG uptake in isolated rat adipocytes. Adipose cells from Wistar rats were incubated for 45 minutes in basal conditions (Basal) or in the presence of 100 nM insulin (Ins), and different concentrations of vanadium salts of 2-(4-fluoro-phenyl)-ethylamine (compound A), 3-phenyl-propylamine (compound B), 4-fluoro-benzylamine (compound C) and 4-phenyl-butylamine (compound D). 2-DG transport was measured over 5 min.
The effects of incubation with semicarbazide or phosphatidylinositol 3-kinase inhibitors were also investigated. […]

Consider `NCc1ccccc1` [Example 1, benzylamine, reference compound], for which the “Human SSAO/VAP-1 activity % relative to benzylamine” value on Human SSAO/VAP-1 came out at 100%. For the same compound, the “Mouse SSAO/VAP-1 activity % relative to benzylamine” value on Mouse SSAO/VAP-1 is reported as 100%.

On to `CC(=O)NCc1cccc(CN)c1` [Example 2, N-(3-(aminomethyl)benzyl)acetamide], for which the “Human SSAO/VAP-1 activity % relative to benzylamine” value on Human SSAO/VAP-1 is 3 ± 1%. The “Mouse SSAO/VAP-1 activity % relative to benzylamine” value on Mouse SSAO/VAP-1 was determined as 16 ± 4%.

For `CCC(=O)NCc1cccc(CN)c1` [Example 3, N-(3-(aminomethyl)benzyl)propionamide], at Human SSAO/VAP-1, the “Human SSAO/VAP-1 activity % relative to benzylamine” value is 4 ± 1%. In addition, the “Mouse SSAO/VAP-1 activity % relative to benzylamine” value at Mouse SSAO/VAP-1 is on record as 27 ± 1%.

With `NCc1cccc(CNC(=O)CI)c1` [Example 4, N-(3-(aminomethyl)benzyl)-2-iodoacetamide], the “Human SSAO/VAP-1 activity % relative to benzylamine” value at Human SSAO/VAP-1 is listed as 38 ± 3%. Further, the “Mouse SSAO/VAP-1 activity % relative to benzylamine” value at Mouse SSAO/VAP-1 is recorded as 61 ± 5%.

Regarding `C=CCOC(=O)NCc1cccc(CN)c1` [Example 5, allyl 3-(aminomethyl)benzylcarbamate], the “Human SSAO/VAP-1 activity % relative to benzylamine” value at Human SSAO/VAP-1 is reported as 21 ± 1%. Further, the “Mouse SSAO/VAP-1 activity % relative to benzylamine” value on Mouse SSAO/VAP-1 worked out at 49 ± 3%.

Consider `NCc1cccc(CNC(=O)c2ccccc2)c1` [Example 6, N-(3-(aminomethyl)benzyl)benzamide], for which, at Human SSAO/VAP-1, the “Human SSAO/VAP-1 activity % relative to benzylamine” value was found to be 17 ± 1%. Moreover, the “Mouse SSAO/VAP-1 activity % relative to benzylamine” value on Mouse SSAO/VAP-1 turned out to be 58 ± 4%.

`CC(=O)N[C@H](C(=O)NCc1cccc(CN)c1)c1ccccc1` [Example 7, (S)-2-acetamido-N-(3-(aminomethyl)benzyl)-2-phenylacetamide]: the “Human SSAO/VAP-1 activity % relative to benzylamine” value at Human SSAO/VAP-1 is recorded as 2 ± 1%. Also, at Mouse SSAO/VAP-1, the “Mouse SSAO/VAP-1 activity % relative to benzylamine” value stood at 13 ± 3%.

For `Cc1ccc(S(=O)(=O)NCc2cccc(CN)c2)cc1` [Example 8, N-(3-(aminomethyl)benzyl)-4-methylbenzenesulfonamide], the “Human SSAO/VAP-1 activity % relative to benzylamine” value at Human SSAO/VAP-1 came out at 12 ± 2%. The “Mouse SSAO/VAP-1 activity % relative to benzylamine” value at Mouse SSAO/VAP-1 came out at 14 ± 3%.

As to `NCc1cccc(CNC(=O)c2ccc(O)cc2)c1` [Example 10, N-(3-(aminomethyl)benzyl)-4-hydroxybenzamide], the “Human SSAO/VAP-1 activity % relative to benzylamine” value at Human SSAO/VAP-1 was determined as 5 ± 1%. Besides, the “Mouse SSAO/VAP-1 activity % relative to benzylamine” value at Mouse SSAO/VAP-1 was determined as 26 ± 1%.

In the case of `NCc1ccc(C(=O)NCc2cccc(CN)c2)cc1` [Example 11, 4-(aminomethyl)-N-(3-(aminomethyl)benzyl)benzamide], the “Human SSAO/VAP-1 activity % relative to benzylamine” value on Human SSAO/VAP-1 is reported as 17 ± 2%. The “Mouse SSAO/VAP-1 activity % relative to benzylamine” value on Mouse SSAO/VAP-1 came to 12 ± 1%.

Regarding `NCCc1ccc(F)cc1` [compound A, 2-(4-fluoro-phenyl)ethylamine], in the test on isolated rat adipocytes, the “stimulation of glucose transport (2-DG uptake), in words” value (shortened to “stimulation … in words”) was “markedly stimulated glucose transport”.

As to `NCCCc1ccccc1` [compound B, 3-phenylpropylamine], the “stimulation … in words” value with isolated rat adipocytes is given as “markedly stimulated glucose transport”.

`NCc1ccc(F)cc1` [compound C, 4-fluoro-benzylamine]: the “stimulation … in words” value with isolated rat adipocytes is recorded as “markedly stimulated glucose transport”.

As for `NCCCCc1ccccc1` [compound D, 4-phenylbutylamine], the “stimulation … in words” value in the test with isolated rat adipocytes is recorded as “markedly stimulated glucose transport”.

On to “pentaquis(benzylammonium) decavanadate [Example B5V10]”, for which, in the test with isolated rat adipocytes, the “effect of semicarbazide on the stimulation of glucose transport” value (shortened to “effect of semicarbazide”) was “blocked in the presence of semicarbazide” and the “stimulation … in words” value is “pronounced stimulation on glucose transport”. For the same compound, the “effect of semicarbazide” value in the test with isolated rat adipocytes (listed as pentaquis(benzylammonium) decavanadate) was “this effect was inhibited”.

As to “tetraquis(benzylammonium) decavanadate [Example B4V10]”, in the test with isolated rat adipocytes, the “effect of semicarbazide” value is “blocked in the presence of semicarbazide” and the “stimulation … in words” value is recorded as “pronounced stimulation on glucose transport”. For the same compound, the “effect of semicarbazide” value with isolated rat adipocytes (listed as tetraquis(benzylammonium) decavanadate) was “this effect was inhibited”.
